# Assay results taken from PMC6271893, “In Vitro Antioxidant and Cytotoxic Activity of Some Synthetic Riparin-Derived Compounds” (Molecules, 2014).
# Marks after values point to notes of the source that are not given here.
# Assays:
# [1] = tested on: larynx carcinoma cell line HEP-2; set-up: method as in PMID 23569415; details: cited from earlier work
# [2] = Scavenging activity of nitric oxide (nitrite production induced by SNP, Griess reaction); details: for IC50 Nitrite: nitrite formation
# Experimental: (§1) For the in vitro antioxidant tests the samples were emulsified in 0.05% Tween 80 dissolved in saline 0.9% (used as the vehicle) and tested at concentrations of 1, 5, 10, 25 and 100 µg/mL. The samples for the cytotoxicity tests were diluted in pure and sterile DMSO and tested at concentrations of 25 µg/mL.
# Nitric oxide was generated from spontaneous decomposition of sodium nitroprusside in 20 mM phosphate buffer (pH 7.4). Once generated, NO interacts with oxygen to produce nitrite ions, which are measured by the Griess reaction. The reaction mixture (1 mL) containing 10 mM sodium nitroprusside (SNP) in phosphate buffer and the riparins at various concentrations of 1, 5, 10, 25 and 100 µg/mL were incubated at 37 °C for 1 h. A 0.5 mL aliquot was taken and homogenized with 0.5 mL Griess reagent. The absorbance of chromophore was measured at 540 nm. Percent inhibition of generated nitric oxide was measured by comparing the absorbance values of negative controls (only 10 mM sodium nitroprusside and vehicle) to assay preparations. Results were expressed as percentage of nitrite formed by SNP alone.
# [3] = Hydroxyl radical scavenging activity (2-deoxyribose degradation, Fenton reaction); details: for IC50 OH radical: hydroxyl radical content
# Experimental: as §1
# The formation of OH radicals from Fenton reagents was quantified using the condensation product of the 2-deoxyribose oxidative degradation product, malonaldehyde, with 2-thiobarbituric acid (TBA). Briefly, typical reactions were started by the addition of Fe^2+ (FeSO4 6 mM final concentration) to solutions containing 5 mM 2-deoxyribose, 100 mM H2O2 and 20 mM phosphate buffer (pH 7.2). In order to determine the antioxidant activity of the riparins against the hydroxyl radical, individual tests were performed on each one of the six substances, in which different concentrations of the riparins were added to the system before Fe^2+ addition (Rip-A; Rip-B; Rip-C; Rip-D; Rip-E and Rip-F). Reactions were carried out for 15 min at room temperature and were quenched by the addition of phosphoric acid 4% (v/v), followed by TBA 1% (thiobarbituric acid, v/v in 50 μL NaOH). The solutions were boiled for 15 min to 95 °C and then cooled at room temperature. The absorbance was measured at 532 nm and the results were expressed as MDA equivalents formed by Fe^2+ and H2O2 [25].
# [4] = Antioxidant potential against the formation of TBARS (AAPH-induced lipid peroxidation of egg yolk homogenate); details: for IC50 TBARS: TBARS production
# Experimental: as §1
# The TBARS assay was employed to quantify lipid peroxidation and an adapted TBARS method was used to measure the antioxidant capacity of the riparins (Rip-A, -B, -C, -D, -E and -F) using egg yolk homogenate as lipid rich substrate. Egg yolk was homogenized (1% w/v) in 20 mM phosphate buffer (pH 7.4), 1 mL of homogenate was sonicated and then homogenized with 0.1 mL of the samples at concentrations of 1, 5, 10, 25 and 100 µg/mL. Lipid peroxidation was induced by the addition of 0.1 mL of 2,2'-azobis(2-methylpropionamidine) dihydrochloride solution (AAPH; 0.12 M). Control was evaluated with only the vehicle. Reactions were carried out for 15 minutes at 37 °C. After cooling, samples (0.5 mL) were centrifuged with 0.5 mL of trichloroacetic acid (15%) at 1,200 ×g for 10 min. An aliquot of 0.5 mL from supernatant was mixed with 0.5 mL TBA (0.67%) and heated at 95 °C for 30 min. After cooling, sample absorbance was measured using a spectrophotometer at 532 nm. The results were expressed as percentage of TBARS formed by AAPH alone (induced control).
# [5] = tested on: HEP-2 (laryngeal carcinoma); assay: Cytotoxicity against tumor cell lines (MTT); assay type: cell-based; details: Homo sapiens, 72 h, 95% confidence interval in brackets, read-out: IC50 values and confidence intervals, HEP-2
# Experimental: (§2) Cells were maintained at 37 °C with 5% CO2 in RPMI 1640 (Himedia^TM, Mumbai, India) or DMEM medium (Gibco^TM, Grand Island, NY, USA) supplemented with 2 mM glutamine, 100 U/mL penicillin, 100 μg/mL streptomycin. The antiproliferative activities of riparins were evaluated in the following human cancer cells lineage: HL-60 (pro-myelocytic leukemia), NCIH-292 (lung carcinoma), and HEP-2 (laryngeal carcinoma) obtained from the Rio de Janeiro Cell Bank (RJ-Brazil). For all experiments, 100 µL of tumor cells were plated in 96-well plates (6 × 10^4 cells/cm^2 for adherent cells or 9 × 10^4 cells/cm^2 for leukemia). Tested compounds (0.1–25 μg/mL) dissolved in 1% DMSO (100 µL) were added to each well and incubated for 72 h. Control groups received the same amount of DMSO. After 69 h of treatment, 25 μL of MTT (5 mg/mL) were added. Three hours later, the MTT formazan product was dissolved in 100 μL of DMSO, and absorbance was measured at 595 nm using a multiplate reader (Thermo Plate®, TP Reader, São Paulo, SP, Brasil).
# (§3) The obtained data were evaluated by one-way analysis of variance (ANOVA) followed by a Student Newman Keuls post hoc test. The data concerning release percentage of cytoplasmatic enzyme lactate dehydrogenase (LDH) were reported by mean ± standard deviation and evaluated by one-way analysis of variance (ANOVA) followed by a Tukey post hoc test. In all cases differences were considered significant if p < 0.05, the means and respective standard errors were analyzed in the Graph Pad Prism version 5.0 for Windows software (GraphPad Software Incorporated, San Diego, CA, USA).
# [6] = tested on: HL-60 (pro-myelocytic leukemia); assay: Cytotoxicity against tumor cell lines (MTT); assay type: cell-based; details: Homo sapiens, 72 h, 95% confidence interval in brackets, read-out: IC50 values and confidence intervals, HL-60
# Experimental: as §2, §3
# [7] = tested on: NCIH-292 (lung carcinoma); assay: Cytotoxicity against tumor cell lines (MTT); assay type: cell-based; details: Homo sapiens, NCI-H292, 72 h, 95% confidence interval in brackets, read-out: IC50 values and confidence intervals, NCIH-292
# Experimental: as §2, §3
# [8] = tested on: murine peritoneal macrophages RAW 264.7; assay: Cytotoxicity assay on RAW 264.7 (LDH release); assay type: cell-based; details: 25 µg/mL, RAW 264.7
# Experimental: Murine peritoneal macrophages of the cell line RAW 264.7 were obtained from the American Type Culture Collection (ATCC, Rockville, MD, USA), and cultured at 37 °C with CO2 at 5% in DMEM-F12 supplemented with 10% fetal bovine serum (FBS; Hyclone^TM, Logan, UT, USA) and gentamicin (50 μg/mL). RAW 264.7 cells (5 × 10^5 cells/mL) were cultured and incubated for 24 h with the riparins A, B, C, D, E and F at the final concentration of 25 µg/mL […]. The cytotoxicity assay was performed by LDH assay. The release of LDH (cytoplasmic lactate dehydrogenase enzyme) was determined using 50 μL of culture supernatant with 100 μL of LDH substrate plus and 5 μL ferric alum (5 mg/mL), at 37 °C for 3 min. Then, 100 μL of the NAD solution and phenazine methosulphate were added to the mixture, maintaining the temperature at 37 °C for 5 min (Labrax Commercial Kit, Clontech, Palo Alto, CA, USA). LDH is an oxidoreductase which catalyzes the interconversion of lactate and pyruvate and, for being a stable cytosolic enzyme, after damage to cell membrane it is released in the cellular environment and because of this LDH is an indirect indicator of cytotoxicity. LDH concentration was determined by colorimetry at 492 nm. The specific release of LDH was calculated as percentage of the controls (not treated cells as negative control and cells treated with 1%Triton X-100 as positive control).
# as §3
# [9] = tested on: tumor cells lines (leukemia and lung and laryngeal carcinoma); assay: Cytotoxicity on tumor cell lines, summary statements over the lines (MTT); assay type: cell-based; details: Homo sapiens; for IC50: leukemia and lung and laryngeal carcinoma, read-out: IC50 values on neoplastic cells (range over cell lines); for inhibition at 25 µg/mL: tumor cells lines, cytotoxicity samples tested at 25 µg/mL, read-out: cell growth inhibition rates
# Experimental: as §1, §2
Compound,IC50 on HEP-2 [1] [µg/mL],Nitrite Production (% induced by SNP) ([2]; 1 μg/mL),Nitrite Production (% induced by SNP) ([2]; 5 μg/mL),Nitrite Production (% induced by SNP) ([2]; 10 μg/mL),Nitrite Production (% induced by SNP) ([2]; 25 μg/mL),Nitrite Production (% induced by SNP) ([2]; 100 μg/mL),IC50 Nitrite [2] [µg/mL],2-Deoxyribose degradation (%) ([3]; 1 μg/mL),2-Deoxyribose degradation (%) ([3]; 5 μg/mL),2-Deoxyribose degradation (%) ([3]; 10 μg/mL),2-Deoxyribose degradation (%) ([3]; 25 μg/mL),2-Deoxyribose degradation (%) ([3]; 100 μg/mL),IC50 OH radical [3] [µg/mL],TBARS levels (% AAPH) ([4]; 1 μg/mL),TBARS levels (% AAPH) ([4]; 5 μg/mL),TBARS levels (% AAPH) ([4]; 10 μg/mL),TBARS levels (% AAPH) ([4]; 25 μg/mL),TBARS levels (% AAPH) ([4]; 100 μg/mL),IC50 TBARS [4] [µg/mL],IC50 [5] [µg/mL],also measured
CC[C@H]1CC2CN3CCc4c([nH]c5ccc(OC)cc45)[C@](C(=O)OC)(C2)[C@H]13 (stereo in doubt) [voacangine],159.33,–,–,–,–,–,–,–,–,–,–,–,–,–,–,–,–,–,–,–,–
"CC[C@H]1C[C@@H]2CN3CCc4c([nH]c5ccccc45)[C@](C(=O)OC)(C2)[C@H]13 [Coronaridine, coronaridine]",54.47,–,–,–,–,–,–,–,–,–,–,–,–,–,–,–,–,–,–,–,–
"COc1ccc(CCNC(=O)c2ccccc2O)cc1OC [Rip-D, 2-Hydroxy-N-[2-(3,4-methoxyphenyl)ethyl]benzamide]",–,72.6 ± 1.81 ^a %,32.2 ± 1.45 ^a %,28.9 ± 1.74 ^a %,24.7 ± 1.77 ^a %,17.3 ± 2.38 ^a %,1.270,93.5 ± 1.17 ^a %,67.9 ± 1.74 ^a %,56.9 ± 0.82 ^a %,51.9 ± 1.27 ^a %,47.3 ± 0.88 ^a %,1.358,41.2 ± 0.96 ^a %,39.4 ± 0.71 ^a %,37.3 ± 0.68 ^a %,34.4 ± 0.76 ^a %,25.6 ± 0.66 ^a %,0.9958,7.3,IC50 [6]: 9 µg/mL; IC50 [7]: > 25 µg/mL; LDH % Release [8]: 83.12%; LDH % Release ([8]; listed as riparin D): greater than 80%; IC50 [9]: 1.9 to 11.4 µg/mL; inhibition at 25 µg/mL [9]: > 70%; melting point: 96 °C
"COc1ccc(CCNC(=O)c2c(O)cccc2O)cc1OC [Rip-F, N-[2-(3,4-Dimethoxyphenyl)ethyl]-2,6-dihydroxybenzamide]",–,74.9 ± 2.27 ^a %,35.3 ± 0.96 ^a %,21.5 ± 0.98 ^a %,19.9 ± 0.71 ^a %,17.3 ± 0.22 ^a %,0.5817,83.3 ± 2.13 ^a %,61.5 ± 0.98 ^a %,57.6 ± 1.47 ^a %,55.1 ± 1.78 ^a %,50.9 ± 2.33 ^a %,1.016,38.8 ± 0.99 ^a %,35.9 ± 0.41 ^a %,35.2 ± 0.44 ^a %,34.6 ± 0.49 ^a %,30.3 ± 0.47 ^a %,0.6231,7.8,IC50 [6]: 11.4 µg/mL; IC50 [7]: 10.3 µg/mL; LDH % Release [8]: 91.01%; LDH % Release ([8]; listed as riparin F): greater than 80%; IC50 [9]: 1.9 to 11.4 µg/mL; inhibition at 25 µg/mL [9]: > 70%; melting point: 167 °C
heyneanine,689.45,–,–,–,–,–,–,–,–,–,–,–,–,–,–,–,–,–,–,–,–
